Experimental data reported in patent US20190183910A1, “ENHANCING DNA REPAIR AND PREVENTING AGING AND ITS CONSEQUENCES IN REPRODUCTIVE AND OTHER CELLS” (NEW YORK MEDICAL COLLEGE, priority 2016, published 2019).

How the values were obtained:
mouse sperm [1] = test: Neutral comet assay on mouse sperm; assay type: cell-based; settings: for percent tail DNA, neutral comet: mouse sperm, n=9, mean±SEM
Experimental: (§1) Treatment was performed with genotoxic stress (1 mM H2O2), S1P (200 μM), and S1P with genotoxic stress and control in culture for one hour. Also, the use of an ATM inhibitor was utilized (10 μM) (KU-55593, Abcam) (Li et al., 2014). We assessed DNA damage, apoptosis, and chromatin integrity. We also studied the DNA DSB repair gene expression by qRT-PCR in sperm lysates.
Slides were prepared 48 hours prior to experimentation by coating normal glass microscope slides with 500 μl normal melting point agar (NMPA, 0.5% w/v in PBS) solution and left to dry at room temperature for no less than 48 hours. Once samples were obtained, 10 μl of mouse sperm suspension was mixed with 90 μl of 0.5% low melting point agar (LMPA). Then, this 100 μl solution was added to the NMPA-coated slides. Coverslips were added and slides were placed on a metallic tray on ice and in the dark for 5 minutes. The cover slips were then removed and another layer of LMPA was added. Cover slips were subsequently replaced before the LMPA hardened. Slides were then kept in the dark on ice again for another 5 minutes. After ten minutes, the cover slips were removed and slides were placed in staining jars containing ice cold lysing solution (2.5 M NaCl, 100 mM EDTA, sodium N-laurylsacrosinate [SLS]. [1% w/v] and 10 mM Trizma base pH10, and 1% Triton-X-100 and 10% DMSO [immediately adding before use]) for 1 hour at 4° C. in a dark place.
After this lysis step, the slides were washed three times for 5 minutes with the cold electrophoresis buffer (0.089 M Tris base, 0.089 M boric acid and 2 mM EDTA [pH 8.3]), and then placed flatly in the electrophoresis tank face up for 30 minutes. This incubation period was used to achieve the unwinding of the DNA. Electrophoresis was then performed at 18 V for 60 minutes. After this, slides were washed twice in PBS for 5 minutes each. Before analysis could occur, the sperm within the slides needed to be fixed by two 10 minute washes in ethanol, and then air drying at room temperature. Ethidium bromide (50 μl at 10 μg/ml in water) was then added on the slide, and sealed with a cover slip. Slides were kept moist, wrapped in aluminum foil to prevent light exposure, and stored at 4° C. until analysis (Smart et al., 2008).
Slides from both alkaline and neutral comets were imaged by fluorescence microscopy using a Nikon OPTIPHOT microscope. ImageJ was used for comet assay analysis, which calculated tail length, tail moment, and % of DNA in the tail. […] The comets were “on scale” for the calculations to be correct (the brightest pixels of interest were below 255 on an 8-bit scale). […] To analyze the slides, an oval around the sperm head was drawn and calculated and then an oval around the sperm tail was drawn and calculated. […] It was calculated as the Pythagorean distance between two points. […]

mouse sperm [2] = test: Susceptibility of DNA to denaturation by AO staining in mouse sperm; assay type: cell-based; settings: as a result of S1P treatment
Experimental: as §1
DNA integrity of mouse sperm were assessed via flow cytometry using acridine orange (AO) staining (Hawley and Hawley, 2004). AO fluoresces green when attached to native DNA, and fluoresces red when attached to fragmented DNA. Basically, after induction of denaturation by heat or acid the denatured DNA (ssDNA) stains metachromatically red with AO while dsDNA stains green. When the sample has ≥50% green fluorescence, the sample is of good quality. Similarly, AO was used to assess sperm chromatin structure by measuring its intensity of fluorescence, which is the ratio of red/(red+green) yields the percentage of DNA fragmentation (also known as DNA fragmentation index, or DFI %).

oocytes = settings: ex vivo (Morita et al., 2000; Tilly and Kolesnick, 2007); cited from earlier work
BRCA1 = test: qRT-PCR DNA DSB repair gene expression in mouse sperm lysates, BRCA1; assay type: cell-based
Experimental: as §1
(§2) Sperm pellets previously snap-frozen in PBS were thawed. RNA was extracted using the trizol method (Rio et al., 2010). The quality and quantity of the RNA were measured with NanoDrop 2000 from Thermo Scientific. RNA (2 μg) from each sample was taken for reverse transcription with dTVN and N9 primers and SuperScript III reverse transcriptase, all procured from Invitrogen. The resulting cDNA was used to perform real-time qPCR with SYBR Green on an Applied Biosystems 7900HT Real-Time PCR machine was used. To determine the relative expression of various DNA repair genes in mouse sperm, we used the ΔΔCt method, which makes use of the expression of housekeeping genes. GAPDH was used as housekeeping gene. Primers were procured from Integrated DNA technologies (IDT) (Table 3).

RAD50 = test: qRT-PCR DNA DSB repair gene expression in mouse sperm lysates, RAD50; assay type: cell-based; settings: S1P treatment, no ATM inhibitor
Experimental: as §1, §2

[3] = in vivo continuous or intermittent administration to mice (Soleimani et al., 2011; Li et al, 2014); cited from earlier work

CCCCCCCCCCCCC/C=C/[C@@H](O)[C@@H](N)COP(=O)(O)O [S1P, sphingosine 1 phosphate]
DNA damage, neutral comet (mouse sperm [1]; S1P-treated mouse sperm with ATM inhibitor): no significant difference | percent tail DNA, neutral comet (mouse sperm [1]; S1P alone, without ATM inhibitor): 18.5±0.59% | percent tail DNA, neutral comet (mouse sperm [1]; S1P with H2O2, without ATM inhibitor): 18.8±0.73% | susceptibility of DNA to denaturation by AO staining (mouse sperm [2]): no significant difference | ceramide induced apoptosis in oocytes (oocytes): block ceramide induced apoptosis | BRCA1 expression (qRT-PCR) (BRCA1; S1P alone, n=9, mean±SEM): 0.471±0.602 | BRCA1 expression (qRT-PCR) (BRCA1; S1P in the presence of genotoxic stress, n=9, mean±SEM): 0.755±0.378 | BRCA1 expression (qRT-PCR) (BRCA1; S1P treatment with ATM inhibitor): blocked the S1P induced increase | RAD50 expression (qRT-PCR) (RAD50): no significant difference | side effects [3]: no detectable side effects
